Measurements taken from PMC6316731 (Brain Sciences, 2018).

System: GABA induced current in MSNs (GABAA receptors with δ subunits / GABAC receptors)
Type: cell-based, mouse

## Oc1noc2c1CCNC2 [Gaboxadol, 4,5,6,7-tetrahydroisoxazolo (5,4-c) pyridin-3-ol]
  Effect on IGABA: concentration-dependent reduction in IGABA
read-out: EC50, percent reduction in current by Gaboxadol
  EC50: 9.81 ± 3.56 µM
